Assay: plasma pharmacokinetics (elimination half-life, dose proportionality of Cmax and AUC)
Settings: in the dose range 5 mg-500 mg
Description: “PK” refers to the pharmacokinetic profile. Cmax is defined as the highest plasma drug concentration estimated during an experiment (ng/ml). Tmax is defined as the time when Cmax is estimated (min). AUC0-∞ is the total area under the plasma drug concentration-time curve, from drug administration until the drug is eliminated (ng·hr/ml or μg·hr/ml). The area under the curve is governed by clearance. Clearance is defined as the volume of blood or plasma that is totally cleared of its content of drug per unit time (ml/min).

AUCs dose proportionality: greater than proportional increase
SMILES: N[C@H]1C[C@@H](C(=O)O)CC1=C(F)F

Reference: patent publication US11918551B2, “Methods of treating seizure disorders and Prader-Willi syndrome” (Ovid Therapeutics, Inc., priority 2017, dated 2024)
